The results in this text go back to patent US10759816B2, “Heterocyclic compounds as RSV inhibitors” (Enanta Pharmaceuticals, Inc., priority 2016, dated 2020).

The first experiment has as its system genotype A, "Long" strain RSV. In words: RSV-A in vitro cytoprotection assay in HEp-2 cells (ATPlite readout of cell viability). The experiment is classed as cell-based, Human respiratory syncytial virus. The note with it: human respiratory syncytial virus, HEp-2, HEp-2 cells, genotype A “Long” strain RSV, cytoprotection; read-out: Human RSV-A (“Long” strain) EC50. In a few lines: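 Cytoprotection measured as ATP-based luminescence (ATPlite) after 4-day incubation of RSV Long-infected HEp-2 cells (8,000/well, 10% FBS DMEM) with 2-fold serial compound dilutions in duplicate. Identically treated virus-free plate gives cytotoxicity; EC50 calculated from viability.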
A general note: ATP-based viability assays read luminescence as a measure of living cells.
Usually EC50 stands for the concentration at which the effect is half-maximal. As to `Cc1cccc(F)c1NC(=O)c1cc2c(s1)-c1ccccc1N(C(=O)c1cccc(-c3cn(S(C)(=O)=O)nc3C3CC3)n1)CC2` [Example 215], the EC50 was < 400 nM.
Turning to `Cc1cccc(F)c1NC(=O)c1cc2c(s1)-c1ccccc1N(C(=O)c1cccc(-c3cnn(S(C)(=O)=O)c3C3CC3)n1)CC2` [Example 216], the EC50 is < 400 nM.
Same read-out and setting: the same measure for `CNC(=O)n1cc(-c2cccc(C(=O)N3CCc4cc(C(=O)Nc5c(C)cccc5F)sc4-c4ccccc43)n2)c(C2CC2)n1` [Example 217]: < 400 nM; for `CNC(=O)n1ncc(-c2cccc(C(=O)N3CCc4cc(C(=O)Nc5c(C)cccc5F)sc4-c4ccccc43)n2)c1C1CC1` [Example 218]: < 400 nM.
On the same count and under the same terms, the same measure for `Cc1cccc(F)c1NC(=O)c1cc2c(s1)-c1ccccc1N(C(=O)c1cccc(-c3cn(C(=O)N(C)C)nc3C3CC3)n1)CC2` [Example 219]: 400 to 800 nM; for `CCS(=O)(=O)n1cc(-c2cccc(C(=O)N3CCc4cc(C(=O)Nc5c(C)cccc5F)sc4-c4ccccc43)n2)c(C2CC2)n1` [Example 220]: 400 to 800 nM; for `Cc1cccc(F)c1NC(=O)c1cc2c(s1)-c1ccccc1N(C(=O)c1cccc(-c3cn(S(=O)(=O)C4CC4)nc3C3CC3)n1)CC2` [Example 221]: < 400 nM.
Still for that read-out and setting: the same measure for `Cc1cccc(F)c1NC(=O)c1cc2c(s1)-c1ccccc1N(C(=O)c1cccc(-c3cnn(S(=O)(=O)C4CC4)c3C3CC3)n1)CC2` [Example 222]: 400 to 800 nM; for `Cc1cccc(F)c1NC(=O)c1cc2c(s1)-c1ccccc1N(C(=O)c1cccc(-c3cn(C(=O)OC(C)C)nc3C3CC3)n1)CC2` [Example 223]: < 400 nM.
As for `CCOC(=O)n1cc(-c2cccc(C(=O)N3CCc4cc(C(=O)Nc5c(C)cccc5F)sc4-c4ccccc43)n2)c(C2CC2)n1` [Example 224], the EC50 was < 400 nM.
On the same count and under the same terms, for `Cc1cccc(F)c1NC(=O)c1cc2c(s1)-c1ccccc1N(C(=O)c1cccc(-c3cn(C(=O)C(C)C)nc3C3CC3)n1)CC2` [Example 225] the value was < 400 nM; for `COCCn1cc(-c2cccc(C(=O)N3CCc4cc(C(=O)Nc5c(C)cccc5F)sc4-c4ccccc43)n2)c(C2CC2)n1` [Example 226], > 800 nM.
On the same count and under the same terms, for `Cc1cccc(F)c1NC(=O)c1cc2c(s1)-c1ccccc1N(C(=O)c1cccc(-c3cn(CCS(C)(=O)=O)nc3C3CC3)n1)CC2` [Example 227] the value was > 800 nM; for `Cc1cccc(F)c1NC(=O)c1cc2c(s1)-c1ccccc1N(C(=O)c1cccc(-c3cn(CCN(C)C)nc3C3CC3)n1)CC2` [Example 228], > 800 nM.
The same measure, in the same setting: for `Cc1cccc(F)c1NC(=O)c1cc2c(s1)-c1ccccc1N(C(=O)c1cccc(-c3cnn(CCN(C)C)c3C3CC3)n1)CC2` [Example 229] the value was > 800 nM; for `Cc1cccc(F)c1NC(=O)c1cc2c(s1)-c1ccccc1N(C(=O)c1cccc(-c3cn(CC(N)=O)nc3C3CC3)n1)CC2` [Example 230], > 800 nM.
On to `Cc1cccc(F)c1NC(=O)c1cc2c(s1)-c1ccccc1N(C(=O)c1cccc(-c3cn(CS(C)(=O)=O)nc3C3CC3)n1)CC2` [Example 231], for which the EC50 was > 800 nM.
The same measure, in the same setting: for `Cc1cccc(F)c1NC(=O)c1cc2c(s1)-c1ccccc1N(C(=O)c1cccc(-c3cnn(Cc4ccccc4)c3-c3ccccn3)n1)CC2` [Example 232] the value was > 800 nM; for `Cc1cccc(F)c1NC(=O)c1cc2c(s1)-c1ccccc1N(C(=O)c1cccc(-c3cncn3C3CC3)n1)CC2` [Example 233], < 400 nM.
For `Cc1cc(-c2cccc(C(=O)N3CCc4cc(C(=O)Nc5c(C)cccc5F)sc4-c4ccccc43)n2)n(C)n1` [Example 234], the EC50 was < 400 nM.
The same measure, in the same setting: the same measure for `Cc1cccc(F)c1NC(=O)c1cc2c(s1)-c1ccccc1N(C(=O)c1cccc(-c3ccn(C)n3)n1)CC2` [Example 235]: > 800 nM.
The same measure, in the same setting: the same measure for `Cc1cccc(F)c1NC(=O)c1cc2c(s1)-c1ccccc1N(C(=O)c1cccc(-c3ccnn3C(C)C)n1)CC2` [Example 236]: < 400 nM.
The same measure, in the same setting: for `Cc1cccc(F)c1NC(=O)c1cc2c(s1)-c1ccccc1N(C(=O)c1cccc(-c3ccnn3C)n1)CC2` [Example 237] the value was < 400 nM; for `CCn1nccc1-c1cccc(C(=O)N2CCc3cc(C(=O)Nc4c(C)cccc4F)sc3-c3ccccc32)n1` [Example 238], < 400 nM; for `Cc1cc(-c2cccc(C(=O)N3CCc4cc(C(=O)Nc5ccccc5N)sc4-c4ccccc43)n2)n(C)n1` [Example 239], > 800 nM.
As to `Cn1ccc(-c2cccc(C(=O)N3CCc4cc(C(=O)Nc5ccccc5N)sc4-c4ccccc43)n2)n1` [Example 240], the EC50 was > 800 nM.
The same measure, in the same setting: the same measure for `CC(C)n1nccc1-c1cccc(C(=O)N2CCc3cc(C(=O)Nc4ccccc4N)sc3-c3ccccc32)n1` [Example 241]: < 400 nM.
Same read-out and setting: the same measure for `Cn1nccc1-c1cccc(C(=O)N2CCc3cc(C(=O)Nc4ccccc4N)sc3-c3ccccc32)n1` [Example 242]: < 400 nM; for `Cc1cccc(F)c1NC(=O)c1cc2c(s1)-c1ccccc1N(C(=O)c1cccc(-c3c[nH]c4ncccc34)n1)CC2` [Example 243]: < 400 nM.
The same measure, in the same setting: for `Cc1cccc(F)c1NC(=O)c1cc2c(s1)-c1ccccc1N(C(=O)c1cccc(-c3cnn4ccccc34)n1)CC2` [Example 244] the value was < 400 nM; for `Cc1cnc2[nH]cc(-c3cccc(C(=O)N4CCc5cc(C(=O)Nc6c(C)cccc6F)sc5-c5ccccc54)n3)c2c1` [Example 245], < 400 nM; for `Cc1ccc2c(-c3cccc(C(=O)N4CCc5cc(C(=O)Nc6c(C)cccc6F)sc5-c5ccccc54)n3)cn(C(=O)OC(C)(C)C)c2c1` [Example 246], > 800 nM.
For the compound `Cc1ccc2c(-c3cccc(C(=O)N4CCc5cc(C(=O)Nc6c(C)cccc6F)sc5-c5ccccc54)n3)c[nH]c2c1` [Example 247], the EC50 was < 400 nM.
On the same count and under the same terms, for `Cc1cccc(F)c1NC(=O)c1cc2c(s1)-c1ccccc1N(C(=O)c1cccc(-c3cn(C(=O)OC(C)(C)C)c4ccc(Cl)cc34)n1)CC2` [Example 248] the value was > 800 nM; for `Cc1cccc(F)c1NC(=O)c1cc2c(s1)-c1ccccc1N(C(=O)c1cccc(-c3c[nH]c4ccc(Cl)cc34)n1)CC2` [Example 249], < 400 nM.
Same read-out and setting: the same measure for `Cc1cccc(F)c1NC(=O)c1cc2c(s1)-c1ccccc1N(C(=O)c1cccc(-c3cn(C(=O)OC(C)(C)C)c4c(Cl)cccc34)n1)CC2` [Example 250]: 400 to 800 nM; for `Cc1cccc(F)c1NC(=O)c1cc2c(s1)-c1ccccc1N(C(=O)c1cccc(-c3c[nH]c4c(Cl)cccc34)n1)CC2` [Example 251]: < 400 nM.
On the same count and under the same terms, the same measure for `Cc1cccc(F)c1NC(=O)c1cc2c(s1)-c1ccccc1N(C(=O)c1cccc(-c3cn(C(=O)OC(C)(C)C)c4c(C)cccc34)n1)CC2` [Example 252]: > 800 nM; for `Cc1cccc(F)c1NC(=O)c1cc2c(s1)-c1ccccc1N(C(=O)c1cccc(-c3c[nH]c4c(C)cccc34)n1)CC2` [Example 253]: < 400 nM.
Take `Cc1ccc2[nH]cc(-c3cccc(C(=O)N4CCc5cc(C(=O)Nc6c(C)cccc6F)sc5-c5ccccc54)n3)c2c1` [Example 255]: the EC50 was 400 to 800 nM.
For `Cc1cccc(F)c1NC(=O)c1cc2c(s1)-c1ccccc1N(C(=O)c1cccc(-c3coc4ccccc34)n1)CC2` [Example 256], the EC50 was < 400 nM.
On the same count and under the same terms, the same measure for `Cc1cccc(F)c1NC(=O)c1cc2c(s1)-c1ccccc1N(C(=O)c1cccc(-c3coc4cccnc34)n1)CC2` [Example 257]: > 800 nM; for `Cc1cccc(F)c1NC(=O)c1cc2c(s1)-c1ccccc1N(C(=O)c1cccc(-c3coc4ccncc34)n1)CC2` [Example 258]: > 800 nM.
Turning to `Cc1cccc(F)c1NC(=O)c1cc2c(s1)-c1cccc(F)c1N(C(=O)c1cccc(-c3c[nH]c4ncccc34)n1)CC2` [Example 259], the EC50 was < 400 nM.
The same measure, in the same setting: the same measure for `Cc1cccc(F)c1NC(=O)c1cc2c(s1)-c1ccccc1N(C(=O)c1cccc(-c3conc3C)n1)CC2` [Example 261]: < 400 nM.
Same read-out and setting: the same measure for `Cc1cccc(F)c1NC(=O)c1cc2c(s1)-c1ccccc1N(C(=O)c1cccc(-c3cnoc3C)n1)CC2` [Example 262]: > 800 nM; for `Cc1cccc(F)c1NC(=O)c1cc2c(s1)-c1cc(F)ccc1N(C(=O)c1cccc(-c3c[nH]nc3C3CC3)n1)CC2` [Example 263]: < 400 nM; for `COc1ccc(-c2cccc(C(=O)N3CCc4cc(C(=O)Nc5c(C)cccc5F)sc4-c4ccccc43)n2)cn1` [Example 264]: > 800 nM.
Same read-out and setting: the same measure for `Cc1cccc(F)c1NC(=O)c1cc2c(s1)-c1ccccc1N(C(=O)c1cccc(-c3c[nH]nc3/C=C/c3ccccc3)n1)CC2` [Example 265]: > 800 nM; for `Cc1cccc(F)c1NC(=O)c1cc2c(s1)-c1ccccc1N(C(=O)c1ccc(-c3c[nH]c4ncccc34)cc1)CC2` [Example 266]: > 800 nM; for `COC(=O)n1cc(-c2ccc(C(=O)N3CCc4cc(C(=O)Nc5c(C)cccc5F)sc4-c4ccccc43)cc2)c2cccnc21` [Example 267]: > 800 nM.
With `Cc1cccc(F)c1NC(=O)c1cc2c(s1)-c1ccccc1N(C(=O)c1ccc(-c3cn(S(C)(=O)=O)c4ncccc34)cc1)CC2` [Example 268], the EC50 was > 800 nM.
Same read-out and setting: for `Cc1cccc(F)c1NC(=O)c1cc2c(s1)-c1ccccc1N(C(=O)c1ccc(-c3c[nH]nc3C)cc1)CC2` [Example 269] the value was > 800 nM; for `Cc1cc(-c2ccc(C(=O)N3CCc4cc(C(=O)Nc5c(C)cccc5F)sc4-c4ccccc43)cc2)n[nH]1` [Example 270], > 800 nM.
For the compound `Cc1cc(-c2ccc(C(=O)N3CCc4cc(C(=O)Nc5c(C)cccc5F)sc4-c4ccccc43)cc2)n(S(C)(=O)=O)n1` [Example 271], the EC50 was > 800 nM.

Staying with this experiment, now noted: human respiratory syncytial virus, HEp-2, read-out: Human RSV-A (“Long” strain) EC50.
As to `Cc1ccc2c(c1)c(-c1cccc(C(=O)N3CCc4cc(C(=O)Nc5c(C)cccc5F)sc4-c4ccccc43)n1)cn2[Si](C)(C)C(C)(C)C` [Example 254], the EC50 was > 800 nM.
